Where two headings read alike, the source gives them in different places. Each block holds one compound with its values, some of them ahead of it.
How the values were obtained:
[1] = molecular target: T1, hPARL (presenilin-associated rhomboid-like protein, mitochondrial) (Homo sapiens, UniProt Q9H300); experiment: competitive ABPP, dose-response; format: biochemical
T1 construct: gene PARL; hPARL in HEK293T membrane proteome

human RHBDL4 (hRHBDL4) [2] = molecular target: T2, human RHBDL4 (hRHBDL4) (Homo sapiens, UniProt Q8TEB9); experiment: competitive ABPP with FP-Rh, dose-response; format: biochemical; set-up: gene RHBDD1
T2 sequence (Q8TEB9 1-315): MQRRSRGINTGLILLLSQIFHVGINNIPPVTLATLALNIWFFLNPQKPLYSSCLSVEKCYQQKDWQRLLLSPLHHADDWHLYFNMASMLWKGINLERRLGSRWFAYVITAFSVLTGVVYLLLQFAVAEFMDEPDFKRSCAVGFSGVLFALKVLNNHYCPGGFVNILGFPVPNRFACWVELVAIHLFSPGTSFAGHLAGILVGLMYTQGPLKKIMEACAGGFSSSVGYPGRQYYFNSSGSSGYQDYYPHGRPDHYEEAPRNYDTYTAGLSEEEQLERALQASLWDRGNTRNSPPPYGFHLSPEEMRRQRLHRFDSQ

human RHBDL4 (hRHBDL4) [3] = molecular target: T2, human RHBDL4 (hRHBDL4); experiment: competitive ABPP with FP-Rh at […]; format: biochemical; set-up: gene RHBDD1; hRHBDL4 in HEK293T membrane proteome
[4] = molecular target: T1, hPARL (presenilin-associated rhomboid-like protein, mitochondrial); experiment: competitive ABPP, dose-response; format: cell-based

T1 sequence (Q9H300 53-379): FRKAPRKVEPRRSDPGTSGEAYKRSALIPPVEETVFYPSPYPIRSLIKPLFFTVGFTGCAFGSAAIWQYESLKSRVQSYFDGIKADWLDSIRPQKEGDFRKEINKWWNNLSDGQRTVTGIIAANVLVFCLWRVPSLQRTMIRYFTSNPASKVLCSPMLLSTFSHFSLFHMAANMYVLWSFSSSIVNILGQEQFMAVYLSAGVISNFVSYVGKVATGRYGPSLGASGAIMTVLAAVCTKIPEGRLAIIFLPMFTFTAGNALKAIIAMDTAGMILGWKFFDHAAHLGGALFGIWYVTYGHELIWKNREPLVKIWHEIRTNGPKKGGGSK

SMILES: O=c1oc(Cl)c(Cl)c2ccccc12 [3,4-DCI]
IC50 [1]: 25 µM
IC50 (human RHBDL4 (hRHBDL4) [2]): 1.1 µM

competitive ABPP with FP-Rh at 100 μM (human RHBDL4 (hRHBDL4) [3]): nearly complete competition at 100
SMILES: O=C(OCN1C(=O)c2ccccc2S1(=O)=O)c1ccccc1Cl [BSc5195]

IC50 [4]: low micromolar
SMILES: O=C1CCC(=O)N1S(=O)(=O)c1ccccc1 [WHP3A]

Source: paper PMC11334910, “Activity-Based Protein Profiling of RHBDL4 Reveals Proteolysis of the Enzyme and a Distinct Inhibitor Profile” (ACS Chemical Biology, 2024)
